{"source": "patent US11229618B2", "about": "(Amarin Pharmaceuticals Ireland Limited, priority 2012, dated 2022)", "assay": "AAMI 6-week study: essential fatty acid parameters in plasma (gas chromatography)", "assay_type": "in vivo, human", "details": "for AA Plasma Mean change from Baseline / DHA Plasma Mean change from Baseline / AA Plasma 1 or 2 g versus 4 g LS Mean / DHA Plasma 1 or 2 g versus 4 g LS Mean: AAMI; for AA Plasma Mean change from Baseline / DHA Plasma Mean change from Baseline: mean (SD); for DGLA 1 or 2 g versus 4 g, LS Mean / DPAn-3 1 or 2 g versus 4 g, LS Mean / EPA/AA 1 or 2 g versus 4 g, LS Mean / DGLA Mean change from Baseline, Mean (SD) / DPAn-3 Mean change from Baseline, Mean (SD) / EPA/AA Mean change from Baseline, Mean (SD) / DGLA Baseline Mean (SD) / DPAn-3 Baseline Mean (SD) / EPA/AA Baseline Mean (SD): plasma; for DPAn-3 1 or 2 g versus 4 g, LS Mean / EPA/AA 1 or 2 g versus 4 g, LS Mean: p-value <0.001", "method": "A single-center, 6-week, double-blind, randomizes, parallel-group, placebo-controlled, dose-ranging pilot study was performed to evaluate the efficacy, tolerability, and safety of >96% ethyl-EPA in subjects with subjective and objective memory impairment according to generally accepted criteria for Age-Associated Memory Impairment (“AAMI”). The primary objective of the study was to determine the effect of >96% ethyl-EPA 1 g, 2 g, and 4 g daily, compared to placebo, on cognitive performance in subjects with AAMI.\nNinety-four subjects were randomized into one of six groups: 1 g E-EPA daily (n=23), 2 g E-EPA daily (n=24), 4 g E-EPA daily (n=24), 1 g placebo daily (n=7), 2 g placebo daily (n=8), and 4 g placebo daily (n=8). E-EPA was provided as 500 mg soft gel capsules containing>96% E-EPA and 0.2% dl-α-tocopherol as an antioxidant. Placebo capsules contained 467 mg of liquid paraffin and 0.2% dl-α-tocopherol. Ninety-one subjects completed the study. Two subjects in the 2 g E-EPA group and one subject in the 2 g placebo group discontinued the study.\nBlood samples (10 mL) were collected at Visit 1 (screening) and at Visits 4, 5 and 6. Analysis was performed by MSR Lipid Analysis, Scottish Crop Research Institute, Dundee, UK. The screening sample acted as baseline for the EFA measurements. Lipid was extracted from plasma, serum and RBC suspensions and converted into fatty acid methyl esters which were analyzed by gas chromatography to give fatty acid profiles as micrograms fatty acid per gram of sample (μgFA/g) and normalized area percent.\nRBC and plasma EFA data were collected at baseline, Day 14, 28 and 42 and summarized by visit for each treatment group. Change from baseline and percent change from baseline were also summarized. ANCOVA comparison of ethyl-EPA dose groups and ethyl-EPA versus placebo was performed.", "data": [{"smiles": "CC/C=C\\C/C=C\\C/C=C\\C/C=C\\C/C=C\\CCCC(=O)OCC", "note": "[IPE, all-cis eicosa-5,8,11,14,17-pentaenoic acid ethyl ester]", "values": [{"measurement": "AA Plasma Mean change from Baseline", "setting": "1 g daily, Day 14", "result": "−9.7 (22.20) μg/g"}, {"measurement": "DHA Plasma Mean change from Baseline", "setting": "1 g daily, Day 14", "result": "−6.4 (13.30) μg/g"}, {"measurement": "AA Plasma Mean change from Baseline", "setting": "1 g daily, Day 28", "result": "−11.3 (28.13) μg/g"}, {"measurement": "DHA Plasma Mean change from Baseline", "setting": "1 g daily, Day 28", "result": "−6.6 (15.53) μg/g"}, {"measurement": "AA Plasma Mean change from Baseline", "setting": "1 g daily, Day 42", "result": "−8.7 (31.35) μg/g"}, {"measurement": "DHA Plasma Mean change from Baseline", "setting": "1 g daily, Day 42", "result": "−5.4 (18.17) μg/g"}, {"measurement": "AA Plasma 1 or 2 g versus 4 g LS Mean", "setting": "1 g versus 4 g", "result": 4.2, "unit": "µg/g"}, {"measurement": "DHA Plasma 1 or 2 g versus 4 g LS Mean", "setting": "1 g versus 4 g", "result": -0.8, "unit": "µg/g"}, {"measurement": "AA Plasma Mean change from Baseline", "setting": "2 g daily, Day 14", "result": "−13.9 (22.13) μg/g"}, {"measurement": "DHA Plasma Mean change from Baseline", "setting": "2 g daily, Day 14", "result": "−5.4 (14.29) μg/g"}, {"measurement": "AA Plasma Mean change from Baseline", "setting": "2 g daily, Day 28", "result": "21.6 (28.32) μg/g"}, {"measurement": "DHA Plasma Mean change from Baseline", "setting": "2 g daily, Day 28", "result": "−8.1 (15.82) μg/g"}, {"measurement": "AA Plasma Mean change from Baseline", "setting": "2 g daily, Day 42", "result": "−27.3 (26.76) μg/g"}, {"measurement": "DHA Plasma Mean change from Baseline", "setting": "2 g daily, Day 42", "result": "−6.0 (16.69) μg/g"}, {"measurement": "AA Plasma 1 or 2 g versus 4 g LS Mean", "setting": "2 g versus 4 g", "result": 15.6, "unit": "µg/g"}, {"measurement": "DHA Plasma 1 or 2 g versus 4 g LS Mean", "setting": "2 g versus 4 g", "result": 1.5, "unit": "µg/g"}, {"measurement": "AA Plasma Mean change from Baseline", "setting": "4 g daily, Day 14", "result": "−27.2 (28.89) μg/g"}, {"measurement": "DHA Plasma Mean change from Baseline", "setting": "4 g daily, Day 14", "result": "−10.3 (13.35) μg/g"}, {"measurement": "AA Plasma Mean change from Baseline", "setting": "4 g daily, Day 28", "result": "−43.7 (32.24) μg/g"}, {"measurement": "DHA Plasma Mean change from Baseline", "setting": "4 g daily, Day 28", "result": "−13.5 (14.10) μg/g"}, {"measurement": "AA Plasma Mean change from Baseline", "setting": "4 g daily, Day 42", "result": "−48.3 (22.20) μg/g"}, {"measurement": "DHA Plasma Mean change from Baseline", "setting": "4 g daily, Day 42", "result": "−13.8 (15.31) μg/g"}, {"measurement": "DGLA 1 or 2 g versus 4 g, LS Mean", "setting": "Ethyl-EPA 1 g versus 4 g, p-value 0.028", "result": 3.7, "unit": "µg/g"}, {"measurement": "DPAn-3 1 or 2 g versus 4 g, LS Mean", "setting": "Ethyl-EPA 1 g versus 4 g", "result": -15.1, "unit": "µg/g"}, {"measurement": "EPA/AA 1 or 2 g versus 4 g, LS Mean", "setting": "Ethyl-EPA 1 g versus 4 g", "result": "−0.66"}, {"measurement": "DGLA Mean change from Baseline, Mean (SD)", "setting": "Ethyl-EPA 1 g, Day 14", "result": "−10.4 (10.90) μg/g"}, {"measurement": "DPAn-3 Mean change from Baseline, Mean (SD)", "setting": "Ethyl-EPA 1 g, Day 14", "result": "7.5 (5.11) μg/g"}, {"measurement": "EPA/AA Mean change from Baseline, Mean (SD)", "setting": "Ethyl-EPA 1 g, Day 14", "result": "0.3 (0.4)"}, {"measurement": "DGLA Mean change from Baseline, Mean (SD)", "setting": "Ethyl-EPA 1 g, Day 28", "result": "−10.6 (10.23) μg/g"}, {"measurement": "DPAn-3 Mean change from Baseline, Mean (SD)", "setting": "Ethyl-EPA 1 g, Day 28", "result": "8.9 (5.62) μg/g"}, {"measurement": "EPA/AA Mean change from Baseline, Mean (SD)", "setting": "Ethyl-EPA 1 g, Day 28", "result": "0.3 (0.20)"}, {"measurement": "DGLA Mean change from Baseline, Mean (SD)", "setting": "Ethyl-EPA 1 g, Day 42", "result": "−9.4 (9.41) μg/g"}, {"measurement": "DPAn-3 Mean change from Baseline, Mean (SD)", "setting": "Ethyl-EPA 1 g, Day 42", "result": "11.3 (6.61) μg/g"}, {"measurement": "EPA/AA Mean change from Baseline, Mean (SD)", "setting": "Ethyl-EPA 1 g, Day 42", "result": "0.3 (0.24)"}, {"measurement": "DGLA Baseline Mean (SD)", "setting": "Ethyl-EPA 1 g", "result": "51.2 (15.01) μg/g"}, {"measurement": "DPAn-3 Baseline Mean (SD)", "setting": "Ethyl-EPA 1 g", "result": "21.1 (6.62) μg/g"}, {"measurement": "EPA/AA Baseline Mean (SD)", "setting": "Ethyl-EPA 1 g", "result": "0.2 (0.14)"}, {"measurement": "DGLA 1 or 2 g versus 4 g, LS Mean", "setting": "Ethyl-EPA 2 g versus 4 g, p-value 0.143", "result": 2.5, "unit": "µg/g"}, {"measurement": "DPAn-3 1 or 2 g versus 4 g, LS Mean", "setting": "Ethyl-EPA 2 g versus 4 g", "result": -9.5, "unit": "µg/g"}, {"measurement": "EPA/AA 1 or 2 g versus 4 g, LS Mean", "setting": "Ethyl-EPA 2 g versus 4 g", "result": "−0.41"}, {"measurement": "DGLA Mean change from Baseline, Mean (SD)", "setting": "Ethyl-EPA 2 g, Day 14", "result": "−14.1 (6.88) μg/g"}, {"measurement": "DPAn-3 Mean change from Baseline, Mean (SD)", "setting": "Ethyl-EPA 2 g, Day 14", "result": "17.4 (7.49) μg/g"}, {"measurement": "EPA/AA Mean change from Baseline, Mean (SD)", "setting": "Ethyl-EPA 2 g, Day 14", "result": "0.6 (0.23)"}, {"measurement": "DGLA Mean change from Baseline, Mean (SD)", "setting": "Ethyl-EPA 2 g, Day 28", "result": "−16.2 (9.88) μg/g"}, {"measurement": "DPAn-3 Mean change from Baseline, Mean (SD)", "setting": "Ethyl-EPA 2 g, Day 28", "result": "19.4 (8.48) μg/g"}, {"measurement": "EPA/AA Mean change from Baseline, Mean (SD)", "setting": "Ethyl-EPA 2 g, Day 28", "result": "0.8 (0.35)"}, {"measurement": "DPAn-3 Mean change from Baseline, Mean (SD)", "setting": "Ethyl-EPA 2 g, Day 42", "result": "19.3 (8.63) μg/g"}, {"measurement": "EPA/AA Mean change from Baseline, Mean (SD)", "setting": "Ethyl-EPA 2 g, Day 42", "result": "0.7 (0.29)"}, {"measurement": "DGLA Baseline Mean (SD)", "setting": "Ethyl-EPA 2 g", "result": "53.5 (14.12) μg/g"}, {"measurement": "DPAn-3 Baseline Mean (SD)", "setting": "Ethyl-EPA 2 g", "result": "19.7 (4.50) μg/g"}, {"measurement": "EPA/AA Baseline Mean (SD)", "setting": "Ethyl-EPA 2 g", "result": "0.2 (0.12)"}, {"measurement": "DGLA Mean change from Baseline, Mean (SD)", "setting": "Ethyl-EPA 4 g, Day 14", "result": "−22.9 (9.00) μg/g"}, {"measurement": "DPAn-3 Mean change from Baseline, Mean (SD)", "setting": "Ethyl-EPA 4 g, Day 14", "result": "24.5 (11.28) μg/g"}, {"measurement": "EPA/AA Mean change from Baseline, Mean (SD)", "setting": "Ethyl-EPA 4 g, Day 14", "result": "1.1 (0.28)"}, {"measurement": "DGLA Mean change from Baseline, Mean (SD)", "setting": "Ethyl-EPA 4 g, Day 28", "result": "−24.2 (10.73) μg/g"}, {"measurement": "DPAn-3 Mean change from Baseline, Mean (SD)", "setting": "Ethyl-EPA 4 g, Day 28", "result": "29.7 (13.23) μg/g"}, {"measurement": "EPA/AA Mean change from Baseline, Mean (SD)", "setting": "Ethyl-EPA 4 g, Day 28", "result": "1.3 (0.42)"}, {"measurement": "DGLA Mean change from Baseline, Mean (SD)", "setting": "Ethyl-EPA 4 g, Day 42", "result": "−22.5 (10.87) μg/g"}, {"measurement": "DPAn-3 Mean change from Baseline, Mean (SD)", "setting": "Ethyl-EPA 4 g, Day 42", "result": "32.0 (16.01) μg/g"}, {"measurement": "EPA/AA Mean change from Baseline, Mean (SD)", "setting": "Ethyl-EPA 4 g, Day 42", "result": "1.3 (0.45)"}, {"measurement": "DGLA Baseline Mean (SD)", "setting": "Ethyl-EPA 4 g", "result": "57.1 (14.73) μg/g"}, {"measurement": "DPAn-3 Baseline Mean (SD)", "setting": "Ethyl-EPA 4 g", "result": "21.7 (4.69) μg/g"}, {"measurement": "EPA/AA Baseline Mean (SD)", "setting": "Ethyl-EPA 4 g", "result": "0.2 (0.07)"}]}]}
